Source: the supplement of paper PMC10331698
± gives the standard deviation of the averaged measurements.

Assays:
Experiment in all cases: level (log10 ratio to DMSO vehicle control); higher = higher biomarker level / cell amount than vehicle control
[1] = compound: O=C(O)C(F)(OC(F)(F)C(F)(OC(F)(F)C(F)(OC(F)(F)C(F)(F)C(F)(F)F)C(F)(F)F)C(F)(F)F)C(F)(F)F [Perfluoro-(2,5,8-trimethyl-3,6,9-trioxadodecanoic)acid] (in DMSO)
Description: (§1)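 BioMAP Diversity Plus panel of 12 human primary cell co-culture systems (3C, 4H, LPS, SAg, BT, BF4T, BE3C, CASM3C, HDF3CGF, KF3CT, MyoF, Mphg). Compounds were added 1 h before stimulation and left for 24 h (MyoF 48 h; BT 72 h for soluble read-outs or 6 d for IgG). Biomarkers were read by ELISA, cytotoxicity by SRB, PBMC viability and proliferation by Alamar Blue. Each well value was divided by the mean of 8 DMSO control wells on the same plate and log10 transformed; duplicate blinded samples were tested at 4 concentrations.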

[2] = compound: O=S(=O)(O)CCC(F)(F)C(F)(F)C(F)(F)C(F)(F)C(F)(F)C(F)(F)C(F)(F)C(F)(F)F [8:2 Fluorotelomer sulfonic acid] (in DMSO)
Description: as §1

[3] = compound: OCC(F)(F)OC(F)(F)C(F)(F)OC(F)(F)C(F)(F)OC(F)(F)CO [1H,1H,11H,11H-Perfluorotetraethylene glycol] (in DMSO)
Description: as §1

[4] = compound: CO[Si](C)(CCC(F)(F)C(F)(F)C(F)(F)C(F)(F)C(F)(F)C(F)(F)F)OC [Dimethoxymethyl((perfluorohexyl)ethyl)silane] (in DMSO)
Description: as §1

[5] = compound: C[C@@H]1C[C@H]2[C@@H]3CCC4=CC(=O)C=C[C@]4(C)[C@@]3(F)[C@@H](O)C[C@]2(C)[C@@]1(O)C(=O)COP(=O)(O)O [Dexamethasone sodium phosphate] (in DMSO)
Description: as §1

[6] = compound: OCCC(F)(F)C(F)(F)C(F)(F)C(F)(F)F [4:2 Fluorotelomer alcohol] (in DMSO)
Description: as §1

Row | Test System | level (log10) ([1]; 1100 nM) | level (log10) ([1]; 3300 nM) | level (log10) ([1]; 10000 nM) | level (log10) ([2]; 6700 nM) | level (log10) ([2]; 20000 nM) | level (log10) ([2]; 60000 nM) | level (log10) ([3]; 6700 nM) | level (log10) ([3]; 20000 nM) | level (log10) ([3]; 60000 nM) | level (log10) ([4]; 6700 nM) | level (log10) ([4]; 20000 nM) | level (log10) ([5]; 1500 nM) | level (log10) ([5]; 4400 nM) | level (log10) ([5]; 13000 nM) | level (log10) ([5]; 40000 nM) | level (log10) ([6]; 6700 nM) | level (log10) ([6]; 20000 nM) | level (log10) ([6]; 60000 nM)
1 | BT:sTNF-alpha | -0.0445 ± 0.052 | -0.028 ± 0.021 | 0.0375 ± 0.079 | 0.006 ± 0.095 | 0 ± 0.0071 | 0.009 ± 0.034 | 0.0045 ± 0.066 | -0.033 ± 0.09 | -0.234 ± 0.044 | -0.0935 ± 0.15 | 0.094 ± 0.11 | -0.575 ± 0.0078 | -0.553 ± 0.0099 | -0.525 ± 0.13 | -0.566 ± 0.13 | 0.126 ± 0.061 | 0.0895 ± 0.077 | 0.143 ± 0.14
2 | LPS:CCL2/MCP-1 | -0.0105 ± 0.022 | -0.014 ± 0.0042 | -0.002 ± 0.0099 | 0.0135 ± 0.023 | 0.016 ± 0.0028 | -0.055 ± 0.045 | -0.0125 ± 0.0035 | -0.033 ± 0.028 | -0.0405 ± 0.025 | -0.0155 ± 0.028 | 0.013 ± 0.048 | 0.023 ± 0.011 | -0.0045 ± 0.012 | -0.013 ± 0.0071 | -0.0105 ± 0.088 | -0.0125 ± 0.021 | -0.0095 ± 0.00071 | 0.019 ± 0.0057
3 | LPS:CD40 | 0.04 ± 0.1 | 0.0475 ± 0.015 | 0.007 ± 0.055 | 0.037 ± 0.016 | -0.0195 ± 0.021 | -0.128 ± 0.024 | -0.0565 ± 0.026 | -0.058 ± 0.054 | -0.126 ± 0.035 | -0.0085 ± 0.029 | -0.009 ± 0.025 | 0.0175 ± 0.054 | -0.035 ± 0.03 | -0.012 ± 0.037 | -0.0635 ± 0.019 | -0.008 ± 0.016 | -0.041 ± 0.014 | -0.032
4 | LPS:CD62E/E-Selectin | -0.002 ± 0.0099 | -0.0115 ± 0.005 | -0.0135 ± 0.0035 | 0.0235 ± 0.06 | 0.033 ± 0.02 | 0.082 ± 0.025 | 0.004 ± 0.025 | -0.012 ± 0.016 | -0.0165 ± 0.016 | 0.0135 ± 0.011 | 0.01 ± 0.0099 | 0 ± 0.0014 | -0.015 ± 0.0014 | -0.0105 ± 0.00071 | -0.0115 ± 0.005 | 0.002 ± 0.023 | -0.0195 ± 0.012 | -0.0045 ± 0.03
5 | LPS:CD69 | -0.021 ± 0.0014 | -0.0255 ± 0.0078 | -0.007 | -0.0455 ± 0.06 | -0.035 ± 0.071 | -0.0835 ± 0.049 | -0.0115 ± 0.025 | -0.072 ± 0.035 | -0.095 ± 0.011 | -0.046 ± 0.013 | -0.0265 ± 0.0092 | 0.016 ± 0.1 | -0.009 ± 0.052 | -0.042 ± 0.038 | -0.0335 ± 0.039 | -0.0295 ± 0.025 | -0.0135 ± 0.015 | -0.0105 ± 0.025
6 | LPS:CD106/VCAM-1 | -0.009 ± 0.0099 | -0.0005 ± 0.0021 | -0.006 ± 0.0057 | -0.0135 ± 0.073 | -0.021 ± 0.065 | -0.0535 ± 0.077 | 0.001 ± 0.045 | -0.002 ± 0.034 | -0.041 ± 0.052 | -0.0105 ± 0.04 | 0.0095 ± 0.0035 | 0.0095 ± 0.005 | -0.0285 ± 0.026 | -0.0135 ± 0.0035 | -0.0375 ± 0.023 | -0.017 ± 0.014 | -0.0145 ± 0.005 | 0.0075 ± 0.00071
7 | LPS:CD141/Thrombomodulin | -0.019 ± 0.0028 | -0.002 ± 0.0042 | 0.0005 ± 0.0021 | 0.007 ± 0.11 | 0.0505 ± 0.071 | 0.205 ± 0.016 | 0.0725 ± 0.076 | 0.09 ± 0.067 | 0.157 ± 0.056 | 0.024 ± 0.034 | 0.006 ± 0.016 | 0.05 ± 0.031 | 0.035 ± 0.028 | 0.0125 ± 0.039 | 0.032 ± 0.027 | -0.037 ± 0.034 | 0.0025 ± 0.03 | -0.005 ± 0.02
8 | LPS:CD142/Tissue Factor | 0.0115 ± 0.013 | -0.011 ± 0.021 | 0.022 ± 0.0085 | 0.0005 ± 0.067 | 0.024 ± 0.088 | -0.0025 ± 0.011 | -0.0455 ± 0.016 | -0.0665 ± 0.0064 | -0.0575 ± 0.07 | 0.011 ± 0.048 | 0.017 ± 0.058 | 0.0495 ± 0.026 | 0.03 ± 0.023 | 0.014 ± 0.03 | 0.038 ± 0.028 | -0.0015 ± 0.0064 | -0.025 ± 0.047 | 0.0235 ± 0.016
9 | LPS:CXCL8/IL-8 | 0.0045 ± 0.016 | -0.0045 ± 0.0064 | 0.0095 ± 0.0021 | 0.01 ± 0.11 | 0.0485 ± 0.012 | -0.053 ± 0.17 | -0.0025 ± 0.00071 | -0.01 ± 0.0057 | -0.02 ± 0.011 | 0.0325 ± 0.03 | 0.065 ± 0.0071 | 0.026 ± 0.014 | -0.017 ± 0.02 | -0.0135 ± 0.025 | -0.0475 ± 0.076 | -0.0255 ± 0.015 | -0.0005 ± 0.0078 | -0.005 ± 0.024
10 | LPS:IL-1alpha | 0.0135 ± 0.00071 | -0.0305 ± 0.023 | -0.005 ± 0.059 | -0.0195 ± 0.03 | -0.016 ± 0.037 | -0.283 ± 0.19 | -0.02 ± 0.024 | -0.017 ± 0.0057 | -0.006 ± 0.042 | 0.005 ± 0.03 | 0.0235 ± 0.0092 | -0.0215 ± 0.0035 | -0.0475 ± 0.1 | -0.0575 ± 0.035 | -0.0835 ± 0.08 | -0.039 ± 0.055 | -0.0135 ± 0.0021 | -0.0205 ± 0.0078
11 | LPS:M-CSF | -0.005 ± 0.02 | 0.0145 ± 0.035 | 0.022 ± 0.023 | -0.016 ± 0.041 | 0.0075 ± 0.054 | -0.0795 ± 0.088 | 0.0105 ± 0.03 | -0.0025 ± 0.036 | 0.0355 ± 0.011 | -0.022 ± 0.017 | 0.025 ± 0.041 | -0.0225 ± 0.016 | -0.0445 ± 0.039 | -0.0265 ± 0.0078 | -0.0515 ± 0.012 | -0.041 ± 0.027 | 0.005 ± 0.057 | 0.029 ± 0.044
12 | LPS:SRB | -0.008 ± 0.0042 | -0.0125 ± 0.005 | -0.001 ± 0.0085 | -0.0085 ± 0.005 | -0.0095 ± 0.019 | -0.02 ± 0.018 | -0.0175 ± 0.0078 | -0.0255 ± 0.013 | -0.086 ± 0.013 | -0.0025 ± 0.0064 | 0.003 ± 0.0085 | 0.008 ± 0.0085 | -0.012 ± 0.0071 | -0.003 ± 0.0099 | 0.006 ± 0.031 | -0.012 ± 0.0057 | -0.0145 ± 0.0092 | -0.006 ± 0.0014
13 | LPS:sPGE2 | 0.0385 ± 0.032 | 0.011 ± 0.031 | -0.012 ± 0.047 | -0.0245 ± 0.0035 | -0.078 ± 0.047 | -0.293 ± 0.017 | 0.032 ± 0.034 | 0.0965 ± 0.0078 | 0.056 ± 0.011 | 0 ± 0.042 | -0.0145 ± 0.035 | -0.028 ± 0.028 | -0.0525 ± 0.015 | -0.121 ± 0.044 | -0.155 ± 0.016 | -0.008 ± 0.025 | -0.0115 ± 0.044 | -0.0105 ± 0.025
14 | LPS:sTNF-alpha | 0.0035 ± 0.022 | -0.001 ± 0.016 | 0.001 ± 0.02 | 0.0095 ± 0.011 | -0.006 ± 0.0099 | -0.212 ± 0.12 | 0.0035 ± 0.0078 | 0.002 ± 0.0085 | -0.082 ± 0.0099 | -0.0025 ± 0.0078 | -0.0045 ± 0.0078 | -0.083 ± 0.047 | -0.0655 ± 0.032 | -0.19 ± 0.038 | -0.262 ± 0.032 | -0.008 ± 0.02 | -0.01 ± 0.0071 | 0.0015 ± 0.0092
15 | SAg:CCL2/MCP-1 | -0.0025 ± 0.018 | -0.0055 ± 0.0035 | 0.0195 ± 0.025 | -0.0035 ± 0.019 | 0 ± 0.0099 | -0.0025 ± 0.0078 | -0.023 ± 0.038 | -0.0395 ± 0.03 | -0.094 ± 0.024 | -0.0215 ± 0.00071 | -0.0145 ± 0.0064 | -0.024 ± 0.031 | -0.029 ± 0.013 | -0.089 ± 0.0042 | -0.07 | -0.009 ± 0.0014 | 0.006 ± 0.025 | 0.031 ± 0.089
16 | SAg:CD38 | -0.0115 ± 0.0021 | -0.011 ± 0.021 | -0.005 ± 0.014 | -0.0175 ± 0.04 | -0.02 ± 0.034 | -0.0595 ± 0.053 | -0.0035 ± 0.049 | -0.0255 ± 0.023 | -0.0895 ± 0.033 | 0.0075 ± 0.018 | 0.014 ± 0.0028 | -0.014 ± 0.018 | -0.027 ± 0.021 | -0.037 ± 0.0028 | -0.0215 ± 0.023 | 0.0085 ± 0.11 | 0.0295 ± 0.1 | 0.0235 ± 0.077
